Reference: patent US20240360178A1, “MACROCYCLIC IMMUNOMODULATORS” (Bristol-Myers Squibb Company, priority 2021, published 2024)
Positions of bridges follow the written chain, without caps; N, C: chain ends. Non-standard residues stand in square brackets, D forms with d. Residues, ends and D or L forms follow the SMILES beside them. *: point of attachment. Ala(4-thiazolyl) = N[C@@H](Cc1cscn1)C(=O)O; Bip = N[C@@H](Cc1ccc(-c2ccccc2)cc1)C(=O)O; NMeF = CN[C@@H](Cc1ccccc1)C(=O)O; hArg = N=C(N)NCCCC[C@H](N)C(=O)O; Cit = NC(=O)NCCC[C@H](N)C(=O)O; dOrn = NCCC[C@@H](N)C(=O)O; Carboxymethyl = O=C(O)C*; NMeA = CN[C@@H](C)C(=O)O; Nle = CCCC[C@H](N)C(=O)O; Orn = NCCC[C@H](N)C(=O)O; Dab = NCC[C@H](N)C(=O)O; Sar = CNCC(=O)O

These molecules were tested against T1, human PD-1 (Jurkat-PD-1 cells) / PE-labeled human PD-L1-Ig (Homo sapiens, UniProt Q15116) (assay: Jurkat-PD-1 Cell Binding High-Content Screening Assay (CBA); Jurkat hPD1-PDL1 assay). Settings: Jurkat cell line over-expressing human PD-1; PE-labeled PD-L1-Ig 20 nM final; compound incubated 2 hours at 37° C.; read-out: Jurkat HPD1-PDL1 IC50.
T1 construct: expressed in transfected cells; host or cells: Jurkat cell line over-expressing human PD-1
T1 sequence (Q15116 25-288): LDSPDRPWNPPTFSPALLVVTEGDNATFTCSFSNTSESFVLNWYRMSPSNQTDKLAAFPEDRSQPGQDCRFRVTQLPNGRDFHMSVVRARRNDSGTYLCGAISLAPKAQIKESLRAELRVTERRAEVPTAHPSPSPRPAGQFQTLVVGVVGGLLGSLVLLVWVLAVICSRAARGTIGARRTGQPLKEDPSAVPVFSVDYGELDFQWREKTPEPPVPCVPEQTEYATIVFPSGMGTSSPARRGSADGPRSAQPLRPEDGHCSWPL
In short: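 Jurkat cells over-expressing human PD-1, seeded in DMEM with 10% fetal calf serum, were preincubated with compound for 2 hours at 37° C. PE-labeled human PD-L1-Ig was then added at 20 nM final, and cell-bound fluorescence was read by high-content imaging.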

Question: For `CC(C)C[C@@H]1NC(=O)[C@H](Cc2c[nH]c3ccccc23)NC(=O)[C@H](CC(=O)O)NC(=O)[C@H](Cc2ccc(O)cc2)NC(=O)[C@H](Cc2ccccc2)NC(=O)CSC[C@@H](C(=O)N[C@@H](C)C(N)=O)NC(=O)[C@H](CO)NC(=O)[C@H](C(C)C)NC(=O)[C@H](CC(C)C)NC(=O)[C@H](CC(N)=O)NC(=O)CN(C)C(=O)[C@@H](CCCN)NC(=O)[C@H](C(C)C)NC(=O)[C@H](Cc2ccc(-c3ccccc3)cc2)NC1=O` [Example 1198] ({CH2CO}-FYDWL[Bip]V[dOrn][Sar]NLVSCA-NH2; thioether N-14), which IC50 is on record?
Answer: Its IC50 is 760 nM.

Question: How did the IC50 turn out when `CC(C)C[C@@H]1NC(=O)[C@H](Cc2c[nH]c3ccccc23)NC(=O)[C@H](CC(=O)O)NC(=O)[C@H](Cc2ccc(O)cc2)NC(=O)[C@H](Cc2ccccc2)NC(=O)CSC[C@@H](C(=O)NCC(N)=O)NC(=O)[C@H](CO)NC(=O)[C@H](C(C)C)NC(=O)[C@H](CC(C)C)NC(=O)[C@H](CCCNC(=N)N)NC(=O)CN(C)C(=O)[C@H](C)N(C)C(=O)[C@H](C(C)C)NC(=O)[C@H](Cc2ccc(-c3ccccc3)cc2)NC1=O` [Example 1204] ({CH2CO}-FYDWL[Bip]V[NMeA][Sar]RLVSCG-NH2; thioether N-14) was run?
Answer: The IC50 was 400 nM.

Question: How did the IC50 turn out when `CC(C)C[C@@H]1NC(=O)[C@H](CCN)NC(=O)[C@H](Cc2ccccc2)N(C)C(=O)[C@H](C)N(C)C(=O)[C@H](CCCNC(=N)N)NC(=O)[C@H](Cc2ccc(-c3ccccc3)cc2)NC(=O)[C@H](C(C)C)NC(=O)[C@H](Cc2c[nH]c3ccccc23)NC(=O)[C@H](CC(=O)O)NC(=O)[C@H](Cc2ccc(O)cc2)NC(=O)[C@H](Cc2cnc[nH]2)NC(=O)CSC[C@@H](C(=O)N[C@@H](C)C(N)=O)NC(=O)[C@H]([C@@H](C)O)NC(=O)[C@H](C(C)C)NC1=O` [Example 1321] ({CH2CO}-HYDWV[Bip]R[NMeA][NMeF][Dab]LVTCA-NH2; thioether N-14) was run?
Answer: Its IC50 is 110 nM.

Question: With `CC(C)C[C@@H]1NC(=O)[C@H](Cc2c[nH]c3ccccc23)NC(=O)[C@H](CC(=O)O)NC(=O)[C@H](Cc2ccc(O)cc2)NC(=O)[C@H](Cc2ccccc2)NC(=O)CSC[C@@H](C(=O)N[C@@H](C)C(N)=O)NC(=O)[C@H](Cc2cnc[nH]2)NC(=O)[C@H](C(C)C)NC(=O)[C@H](CC(C)C)NC(=O)[C@H](CC(N)=O)NC(=O)CN(C)C(=O)[C@H](C)N(C)C(=O)[C@H](C(C)C)NC(=O)[C@H](Cc2ccc(-c3ccccc3)cc2)NC1=O` [Example 1127] ({CH2CO}-FYDWL[Bip]V[NMeA][Sar]NLVHCA-NH2; thioether N-14) as the molecule, how does the IC50 read?
Answer: Its IC50 is 480 nM.

Question: `CC(C)C[C@@H]1NC(=O)[C@H](CCCNC(=N)N)NC(=O)[C@H](Cc2ccccc2)N(C)C(=O)[C@H](C)N(C)C(=O)[C@H](CCCNC(=N)N)NC(=O)[C@H](Cc2ccc(-c3ccccc3)cc2)NC(=O)[C@H](C(C)C)NC(=O)[C@H](Cc2c[nH]c3ccccc23)NC(=O)[C@H](CC(=O)O)NC(=O)[C@H](Cc2ccc(OCC(=O)O)cc2)NC(=O)[C@H](Cc2ccccc2)NC(=O)CSC[C@@H](C(=O)NCC(N)=O)NC(=O)[C@H](CO)NC(=O)[C@H](C(C)C)NC1=O` [Example 1275] ({CH2CO}-FY(Carboxymethyl)DWV[Bip]R[NMeA][NMeF]RLVSCG-NH2; thioether N-14) was tested. Which IC50 did it give?
Answer: Its IC50 is 30 nM.

Question: Which IC50 does the source give for `CC(C)C[C@@H]1NC(=O)[C@H](Cc2c[nH]c3ccccc23)NC(=O)[C@H](CC(=O)O)NC(=O)[C@H](Cc2ccc(O)cc2)NC(=O)[C@H](Cc2ccccc2)NC(=O)CSC[C@@H](C(=O)N[C@@H](CCC(=O)O)C(N)=O)NC(=O)[C@H](CO)NC(=O)[C@H](C(C)C)NC(=O)[C@H](CC(C)C)NC(=O)[C@H](CC(N)=O)NC(=O)CN(C)C(=O)[C@H](C)N(C)C(=O)[C@H](C(C)C)NC(=O)[C@H](Cc2ccc(-c3ccccc3)cc2)NC1=O` [Example 1251] ({CH2CO}-FYDWL[Bip]V[NMeA][Sar]NLVSCE-NH2; thioether N-14) here?
Answer: Its IC50 is 360 nM.

Question: For `CC(C)C[C@@H]1NC(=O)[C@H](CCN)NC(=O)[C@H](Cc2ccccc2)N(C)C(=O)[C@H](C)N(C)C(=O)[C@H](CCC(=O)O)NC(=O)[C@H](Cc2ccc(-c3ccccc3)cc2)NC(=O)[C@H](C(C)C)NC(=O)[C@H](Cc2c[nH]c3ccccc23)NC(=O)[C@H](CC(=O)O)NC(=O)[C@H](Cc2ccc(O)cc2)NC(=O)[C@H](CC(N)=O)NC(=O)CSC[C@@H](C(=O)N[C@@H](C)C(N)=O)NC(=O)[C@H](CCCN)NC(=O)[C@H](C(C)C)NC1=O` [Example 1380] ({CH2CO}-NYDWV[Bip]E[NMeA][NMeF][Dab]LV[Orn]CA-NH2; thioether N-14), which IC50 is on record?
Answer: The IC50 was 70 nM.

Question: How did the IC50 turn out when `CC(C)C[C@@H]1NC(=O)[C@H](Cc2c[nH]c3ccccc23)NC(=O)[C@H](CC(=O)O)NC(=O)[C@H](Cc2ccc(O)cc2)NC(=O)[C@H](Cc2ccccc2)NC(=O)CSC[C@@H](C(=O)N[C@@H](CCCCN)C(N)=O)NC(=O)[C@H](CO)NC(=O)[C@H](C(C)C)NC(=O)[C@H](CC(C)C)NC(=O)[C@H](CC(N)=O)NC(=O)CN(C)C(=O)[C@H](C)N(C)C(=O)[C@H](C(C)C)NC(=O)[C@H](Cc2ccc(-c3ccccc3)cc2)NC1=O` [Example 1253] ({CH2CO}-FYDWL[Bip]V[NMeA][Sar]NLVSCK-NH2; thioether N-14) was run?
Answer: Its IC50 is 710 nM.

Question: Which IC50 does the source give for `CC(C)C[C@@H]1NC(=O)[C@H](CCCNC(=N)N)NC(=O)[C@H](Cc2ccccc2)N(C)C(=O)[C@H](C)N(C)C(=O)[C@H](CCCCNC(=N)N)NC(=O)[C@H](Cc2ccc(-c3ccccc3)cc2)NC(=O)[C@H](C(C)C)NC(=O)[C@H](Cc2c[nH]c3ccccc23)NC(=O)[C@H](CC(=O)O)NC(=O)[C@H](Cc2ccc(O)cc2)NC(=O)[C@H](Cc2ccccc2)NC(=O)CSC[C@@H](C(=O)NCC(N)=O)NC(=O)[C@H](CO)NC(=O)[C@H](C(C)C)NC1=O` [Example 1244] ({CH2CO}-FYDWV[Bip][hArg][NMeA][NMeF]RLVSCG-NH2; thioether N-14) here?
Answer: Its IC50 is 190 nM.

Question: `CC(C)C[C@@H]1NC(=O)[C@H](CCCCN)NC(=O)[C@H](Cc2ccccc2)N(C)C(=O)[C@H](C)N(C)C(=O)[C@H](CCCNC(=N)N)NC(=O)[C@H](Cc2ccc(-c3ccccc3)cc2)NC(=O)[C@H](C(C)C)NC(=O)[C@H](Cc2c[nH]c3ccccc23)NC(=O)[C@H](CC(=O)O)NC(=O)[C@H](Cc2ccc(O)cc2)NC(=O)[C@H](CC(N)=O)NC(=O)CSC[C@@H](C(=O)N[C@@H](CCC(=O)O)C(N)=O)NC(=O)[C@H]([C@@H](C)O)NC(=O)[C@H](C(C)C)NC1=O` [Example 1360] ({CH2CO}-NYDWV[Bip]R[NMeA][NMeF]KLVTCE-NH2; thioether N-14) was tested. Which IC50 did it give?
Answer: The IC50 was 570 nM.

Question: For `CC(C)C[C@@H]1NC(=O)[C@H](CCCNC(=N)N)NC(=O)[C@H](Cc2ccccc2)N(C)C(=O)[C@H](C)N(C)C(=O)[C@H](CCCNC(=N)N)NC(=O)[C@H](Cc2ccc(-c3ccccc3)cc2)NC(=O)[C@H](C(C)C)NC(=O)[C@H](Cc2c[nH]c3ccccc23)NC(=O)[C@H](CC(=O)O)NC(=O)[C@H](Cc2ccc(O)cc2)NC(=O)[C@H](CCC(N)=O)NC(=O)CSC[C@@H](C(=O)N[C@@H](C)C(N)=O)NC(=O)[C@H]([C@@H](C)O)NC(=O)[C@H](C(C)C)NC1=O` [Example 1323] ({CH2CO}-QYDWV[Bip]R[NMeA][NMeF]RLVTCA-NH2; thioether N-14), which IC50 is on record?
Answer: The IC50 was 510 nM.

Question: `CC(C)C[C@@H]1NC(=O)[C@H](CCCNC(=N)N)NC(=O)[C@H](Cc2ccccc2)N(C)C(=O)[C@H](C)N(C)C(=O)[C@H](CCCNC(=N)N)NC(=O)[C@H](Cc2ccc(-c3ccccc3)cc2)NC(=O)[C@H](C(C)C)NC(=O)[C@H](Cc2c[nH]c3ccccc23)NC(=O)[C@H](CC(=O)O)NC(=O)[C@H](Cc2ccc(O)cc2)NC(=O)[C@H](CCC(=O)O)NC(=O)CSC[C@@H](C(=O)NCC(N)=O)NC(=O)[C@H](CO)NC(=O)[C@H](C(C)C)NC1=O` [Example 1210] ({CH2CO}-EYDWV[Bip]R[NMeA][NMeF]RLVSCG-NH2; thioether N-14) was tested. Which IC50 did it give?
Answer: The IC50 was 600 nM.

Question: How did the IC50 turn out when `CCCC[C@@H]1NC(=O)[C@H](CC(N)=O)NC(=O)CN(C)C(=O)[C@H](C)N(C)C(=O)[C@H](C(C)C)NC(=O)[C@H](Cc2ccc(-c3ccccc3)cc2)NC(=O)[C@H](CC(C)C)NC(=O)[C@H](Cc2c[nH]c3ccccc23)NC(=O)[C@H](CC(=O)O)NC(=O)[C@H](Cc2ccc(O)cc2)NC(=O)[C@H](Cc2ccccc2)NC(=O)CSC[C@@H](C(=O)NCC(N)=O)NC(=O)[C@H](CO)NC(=O)[C@H](C(C)C)NC1=O` [Example 1073] ({CH2CO}-FYDWL[Bip]V[NMeA][Sar]N[Nle]VSCG-NH2; thioether N-14) was run?
Answer: The IC50 was 190 nM.

Question: With `CC(C)C[C@@H]1NC(=O)[C@H](CCCNC(=N)N)NC(=O)[C@H](Cc2ccccc2)N(C)C(=O)[C@H](C)N(C)C(=O)[C@H](CCCNC(N)=O)NC(=O)[C@H](Cc2ccc(-c3ccccc3)cc2)NC(=O)[C@H](C(C)C)NC(=O)[C@H](Cc2c[nH]c3ccccc23)NC(=O)[C@H](CC(=O)O)NC(=O)[C@H](Cc2ccc(O)cc2)NC(=O)[C@H](CC(N)=O)NC(=O)CSC[C@@H](C(=O)NCC(N)=O)NC(=O)[C@H](CO)NC(=O)[C@H](C(C)C)NC1=O` [Example 1381] ({CH2CO}-NYDWV[Bip][Cit][NMeA][NMeF]RLVSCG-NH2; thioether N-14) as the molecule, how does the IC50 read?
Answer: The IC50 was 160 nM.

Question: How did the IC50 turn out when `CC(C)C[C@@H]1NC(=O)[C@H](Cc2c[nH]c3ccccc23)NC(=O)[C@H](CC(=O)O)NC(=O)[C@H](Cc2ccc(O)cc2)NC(=O)[C@H](Cc2cscn2)NC(=O)CSC[C@@H](C(=O)NCC(N)=O)NC(=O)[C@H](CO)NC(=O)[C@H](C(C)C)NC(=O)[C@H](CC(C)C)NC(=O)[C@H](CC(N)=O)NC(=O)CN(C)C(=O)[C@H](C)N(C)C(=O)[C@H](C(C)C)NC(=O)[C@H](Cc2ccc(-c3ccccc3)cc2)NC1=O` [Example 1132] ({CH2CO}-[Ala(4-thiazolyl)]YDWL[Bip]V[NMeA][Sar]NLVSCG-NH2; thioether N-14) was run?
Answer: The IC50 was 530 nM.

Question: How did the IC50 turn out when `CC(C)C[C@@H]1NC(=O)[C@H](CCCNC(=N)N)NC(=O)[C@H](Cc2ccccc2)N(C)C(=O)[C@H](C)N(C)C(=O)[C@H](CCCNC(=N)N)NC(=O)[C@H](Cc2ccc(-c3ccccc3)cc2)NC(=O)[C@H](C(C)C)NC(=O)[C@H](Cc2c[nH]c3ccccc23)NC(=O)[C@H](CC(=O)O)NC(=O)[C@H](Cc2ccc(O)cc2)NC(=O)[C@H](CC(N)=O)NC(=O)CSC[C@@H](C(=O)N[C@@H](C)C(N)=O)NC(=O)[C@H]([C@@H](C)O)NC(=O)[C@H](C(C)C)NC1=O` [Example 1318] ({CH2CO}-NYDWV[Bip]R[NMeA][NMeF]RLVTCA-NH2; thioether N-14) was run?
Answer: The IC50 was 380 nM.
